Results on two compounds are retold here after US10160986B2, “Chemoenzymatic synthesis of heparin and heparan sulfate analogs” (The Regents of the University of California, priority 2011, dated 2018).

Assay [1] concerns PmHS2. Nature of the assay: Small-scale PmHS2 donor substrate test by TLC. The format is biochemical, Pasteurella multocida. To be noted: GlcAβ2AAMe 10 mM, donor 15 mM, MgCl2 10 mM, PmHS2 0.5 mg/mL, pH 7.5, 37° C., 12 hr. As for the experimental part: Prior to applying the one-pot three-enzyme system shown in FIG. 16 to the preparative-scale synthesis of the disaccharides, UDP-GlcNAc and derivatives F17-1-F17-12 were tested as donor substrates for PmHS2 in small-scale reaction containing Tris-HCl buffer (100 mM, pH 7.5), GlcAβ2AAMe (10 mM), UDP-GlcNAc or a derivative (15 mM), MgCl2 (10 mM), and PmHS2 (0.5 mg/mL). The reactions were carried out at 37° C. for 12 hr and analyzed by thin layer chromatography (TLC).

For assay [2], the system named is His6-PmHS2. Nature of the assay: GlcNAcT donor substrate specificity of His6-PmHS2 (Example 12). In kind it is biochemical, Pasteurella multocida. To be noted: acceptor GlcAβ2AA 1 mM, UDP-sugar 1 mM, MnCl2 10 mM, PmHS2 1.1 μg μl^−1, 24 h, 37° C. As for the experimental part: (§1) PmHS2, KfiA, and related fusion proteins were expressed, purified, and characterized as described in Example 1. Reactions with UDP-sugars were carried out in duplicate at 37° C. in MES (100 mM, pH 6.5) containing UDP-GlcNAc or one of its derivatives (1 mM), GlcAβ2AA (1 mM), MnCl2 (10 mM) and KfiA (2.8 μg μl^−1) or PmHS2 (1.1 μg μl^−1) for 24 h. The reaction mixtures were stopped by adding ice-cold 10% (v/v) acetonitrile to make 100-fold dilutions and the mixtures were analyzed by HPLC as described for the pH profile.
(§2) Substrate specificity of the GlcNAcT activities of MBP-KfiA-his6 and his6-PmHS2. […] The reactions were easily analyzed by high performance liquid chromatography (HPLC) equipped with a fluorescence detector using an excitation wavelength of 315 nm and an emission wavelength of 400 nm to determine the ratio of the fluorescent disaccharide product formed and the fluorescent GlcAβ2AA acceptor.

Assay [3] deals with T1, MBP-KfiA-His6 (Escherichia coli).
T1 construct: made in house; host or cells: E. coli BL21(DE3) co-expressing chaperone plasmid pGro7
The assay can be described thus: GlcNAcT donor substrate specificity of MBP-KfiA-His6 (Example 12). As to conditions: acceptor GlcAβ2AA 1 mM, UDP-sugar 1 mM, MnCl2 10 mM, KfiA 2.8 μg μl^−1, 24 h, 37° C. The format is biochemical, E. coli. As for the experimental part: as §1, §2

The test system of assay [4] is PmHS2. The assay can be described thus: Donor substrate specificity of PmHS2 by HPLC (Example 1). In kind it is biochemical, Pasteurella multocida. To be noted: acceptor GlcAα2AA 1 mM, UDP-sugar 1 mM, MnCl2 10 mM, pH 6.5, 37° C. On the procedure: pH profile by HPLC. Typical enzymatic assays were performed in a 10 μl reaction mixture containing a buffer (100 mM) with a pH in the range of 4.0-10.0, UDP-GlcNAc (1 mM), GlcAβ2AA (1 mM), MnCl2 (10 mM) and KfiA (9.0 μg) or PmHS2 (0.25 μg). Buffers used were: Na2HPO4/citric acid, pH 4.0; MES, pH 5.0-6.5; TrisHCl, pH 7.0-9.0; and CAPS, pH 10.0. Reactions were allowed to proceed for 30 min at 37° C. and were quenched by adding ice-cold 10% (v/v) acetonitrile to make 100-fold dilutions. The samples were then kept on ice until an aliquot of 8 μl was injected and analyzed by a Shimadzu LC-2010A system equipped with a membrane on-line degasser, a temperature control unit and a fluorescence detector. A reverse phase Premier C18 column (250 9 4.6 mm I.D., 5 μm particle size, Shimadzu) protected with a C18 guard column cartridge was used. The mobile phase was 25% (v/v) acetonitrile. The fluorescent compounds GlcAβ2AA and GlcNAcα1-4GlcAβ2AA were detected by excitation at 315 nm and emission at 400 nm.
Substrate specificity of KfiA and PmHS2. All reactions were carried out in duplicate at 37° C. in MES (100 mM, pH 6.5) containing an UDP-GlcNAc or its derivatives (1 mM), […] (1 mM), MnCl2 (10 mM) and KfiA ([…] PmHS2 (2.5×10^−2 μg μl^−1). At 30 min, 4 h or 16 h, aliquots of reaction mixture were withdrawn and were quenched by adding ice-cold 10% (v/v) acetonitrile to make 100-fold dilutions. The assays were analyzed by HPLC.

The target in assay [5] is T2, AtGlcAK (Arabidopsis thaliana, UniProt Q93ZC9, I297M).
T2 construct: made in house; host or cells: E. coli BL21 (DE3)
T2 sequence (Q93ZC9 other isoform, or with tags, fused parts or gaps I297M): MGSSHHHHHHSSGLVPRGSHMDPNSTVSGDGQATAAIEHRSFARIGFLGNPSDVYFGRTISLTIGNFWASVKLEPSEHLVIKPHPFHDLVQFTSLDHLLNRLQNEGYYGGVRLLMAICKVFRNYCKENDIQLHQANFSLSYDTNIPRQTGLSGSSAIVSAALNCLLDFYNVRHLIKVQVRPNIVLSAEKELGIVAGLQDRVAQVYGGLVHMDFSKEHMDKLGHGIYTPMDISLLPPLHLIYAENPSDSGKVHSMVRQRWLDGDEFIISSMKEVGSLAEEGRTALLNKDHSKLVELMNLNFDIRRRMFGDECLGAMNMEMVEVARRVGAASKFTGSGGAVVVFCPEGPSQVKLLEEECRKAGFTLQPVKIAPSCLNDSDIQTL
Nature of the assay: AtGlcAK substrate specificity CE assay. The format is biochemical. To be noted: High enzyme Conc. (2.1 μg in 20 μL, 60 min, 37° C.). On the procedure:
Substrate specificity assays. […] The reactions were quenched and assayed with the same method as those for pH profile. All reactions were performed in duplicates.

Consider `CC(=O)N[C@H]1[C@@H](OP(=O)(O)OP(=O)(O)OC[C@H]2O[C@@H](n3ccc(=O)[nH]c3=O)[C@H](O)[C@@H]2O)O[C@H](CN=[N+]=[N-])[C@@H](O)[C@@H]1O` [Compound F17-8, Uridine 5′-diphospho-2-acetamido-6-azido-2,6-dideoxy-α-D-glucopyranoside], for which the “donor substrate for PmHS2” value is “tolerable donor substrates” in assay [1] and “is a substrate for PmHS2” in assay [4]. The “donor substrate for the α1-4GlcNAcT activity of His6-PmHS2” value in assay [2] is reported as “suitable donor substrates for His6-PmHS2”. The “donor substrate for MBP-KfiA-His6” value in assay [3] is listed as “can be used by MBP-KfiA-His6”.
With `O=C[C@H](O)[C@@H](O)[C@H](O)CO` [Xyl, xylose], the “Percentage conversion of ATP” value in assay [5] was under 5%.
